The record followed here is patent US6506790B1, “Compounds and methods” (SmithKline Beecham Corporation, priority 1999, dated 2003).

As to `CNC1CC(C)(C)Oc2cc3c(cc21)C(c1cccc(Cl)c1)CC(C)(C)O3` (stereo not shown) [Example 4, 6-(3-chlorophenyl)-3,4,7,8-tetrahydro-N-methyl-2,2,8,8-tetramethyl-2H,6H-benzo[1,2-b:5,4-b′]dipyran-4-amine], the melting point was 190 to 192 °C.

In general, melting point refers to the temperature of the solid-liquid transition.
